Assay results: PubChem BioAssay AID449764 (Southern Research Specialized Biocontainment Screening …, 2010)

System: Mycobacterium tuberculosis H37Rv growth inhibition, no glycerol
Assay: Mycobacterium tuberculosis H37Rv growth inhibition, no glycerol, confirmatory dose response (AID 449764);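 also: growth read after 7 days of incubation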
Details: for IC90: measured here: IC90 growth inhibition

| Compound | IC50 | IC90 |
| --- | --- | --- |
| CSc1nsc(SCC(=O)N2CCCCC2)n1 | 8.65 µM | 12.9 µM |
| O=C(c1ccccc1)C1CN(Cc2ccccc2)CCC1(O)c1ccccc1 (stereo not drawn) | 16.3 µM | 21.8 µM |
| O=C(OCC(=O)c1c[nH]c2ccccc12)c1cc(Br)ccc1O | 11.2 µM | 13.1 µM |
| COc1ccc(C2(c3ccc(OC)cc3)NC(=O)N(CC(=O)Nc3ccc(OC(F)F)cc3)C2=O)cc1 | 25 µM | 53.9 µM |
| O=C(CCl)N1CCN2C(=O)c3ccccc3C12c1ccc(Cl)cc1 (stereo not drawn) | 21.9 µM | 32.1 µM |
| CC1CCN(c2nc(Cl)nc(Nc3ccc([N+](=O)[O-])cc3)n2)CC1 | 78.9 µM | > 100 µM |
| Nc1cc(Cl)c2nonc2c1[N+](=O)[O-] | 9.11 µM | 11.7 µM |
| c1ccc(-c2nc3nonc3nc2-c2ccccc2)cc1 | 28.9 µM | 39.4 µM |
| CSC(=S)NCc1cccnc1 | 29.1 µM | 41.9 µM |
| CCCCCCCCCCOC(=O)Cn1c(COc2ccc(Cl)cc2)[n+](C)c2ccccc21 | 15.8 µM | 17.5 µM |
| O=C1C(=O)c2ccccc2-c2ccccc21 | 7.83 µM | 10.6 µM |
| CN(CC(=O)Nc1ccc(OC(F)(F)F)cc1)C(=O)/C=C/c1cc2c(cc1[N+](=O)[O-])OCO2 | 34.5 µM | 40.5 µM |
| O=[N+]([O-])c1ccc(S(=O)(=O)c2ccccc2)nc1 | 1.76 µM | 2.98 µM |
| COc1ccc(NC(=O)/C(Cl)=C(/Cl)S(=O)Cc2ccc(C)cc2)cn1 (stereo not drawn) | < 0.2 µM | 0.36 µM |
| Cc1ccc(-c2nc3c(c(=O)c4ccccc4n3C)c(=O)n2Cc2ccco2)cc1 | 25.1 µM | 40.2 µM |
| Fc1ccc(C[n+]2c(-c3ccccc3)cc(-c3ccccc3)cc2-c2ccccc2)cc1 | 32.8 µM | 43.9 µM |
| COc1ccc(C(=O)OCCNC(=O)c2c(Cl)nc3ccccn23)cc1 | 4.19 µM | 10.6 µM |
| CCc1ccc2c(c1)C1(C(=O)N2)N2CCCC2C(C(=O)c2ccc3ccccc3c2)C12C(=O)Nc1ccccc12 (stereo not drawn) | 23.9 µM | 36.2 µM |
| Cc1ccc(NC(=O)COC(=O)CCc2c[nH]c3ccccc23)cc1[N+](=O)[O-] | 2.29 µM | 6.16 µM |
| Cc1nc2ccc(OC(=O)c3ccccc3)cc2s1 | 88.1 µM | > 100 µM |
| c1ccc(C[C@H]2CN=C(Nc3ccccc3)N2CCCC2CCCC2)cc1 | 33.1 µM | 44.5 µM |
| O=C1Nc2ccccc2/C1=N\N=C\C1=C(N2CCOCC2)C(=C\c2ccccc2)/CC1 | 36.5 µM | > 100 µM |
| CN(C)C(=O)C1C2NC(=S)N(c3ccc(Cl)cc3)C1(C)Oc1ccc(Cl)cc12 (stereo not drawn) | 31.7 µM | 55.5 µM |

| Compound | IC50 | IC90 |
| --- | --- | --- |
| Cc1cc2oc3ccc(NCCCn4ccnc4)cc3c(=O)c2cc1C | 23.2 µM | 25.7 µM |
| CCOC(=O)c1ccc(Oc2nc(NC(C)(C)C)nc(N(C)C)n2)cc1 | 58.1 µM | > 100 µM |
| Cc1ccc(S(=O)(=O)NCc2ccc(C(=O)NCCCN3CCC(Cc4ccccc4)CC3)cc2)cc1 |  | > 100 µM |
| Cn1nc(-c2ccc(N3CCCCC3)c(NC(=O)c3ccco3)c2)c2ccccc2c1=O | 8.18 µM | 12.2 µM |
| Cc1cc(C)c(C(N)=O)c(SCC(=O)c2ccc(Cl)cc2)n1 | 75.3 µM | > 100 µM |
| CN(C)CCCNC(=O)c1ccc(-c2nc(-c3ccc(Cl)cc3)cs2)cc1 | 26.4 µM | 33.8 µM |
| c1ccc(-n2cnc3cc(NCc4cccs4)ccc32)cc1 | 89 µM | > 100 µM |
| CO[C@@H]1[C@@H](OC(N)=O)[C@@H](O)C(Oc2ccc3c(O)c(NC(=O)c4ccc(O)c(CC=C(C)C)c4)c(=O)oc3c2C)OC1(C)C (stereo partly drawn) | 9.33 µM | 14.5 µM |
| CN1CCN(c2c(F)cc3c(=O)c(C(=O)O)cn4c3c2OCN4C)CC1 | 0.72 µM | 0.93 µM |
| O=C1NN(c2ccc(Br)cc2)C(=O)/C1=C\c1ccc(O)cc1O |  | > 100 µM |
| Cc1ccc(NC(=O)CCl)cc1S(=O)(=O)N1CCCCCC1 | 10.1 µM | 14.8 µM |
| CCc1nc2ccccc2c(C(=O)Nc2cc(C)ccc2C)c1C |  | > 100 µM |
| CCC(C)Nc1ccc(NC(C)CC)cc1 (stereo not drawn) | 2.31 µM | 2.97 µM |
| CSC(=S)N/N=C/c1ccccc1 | 39.8 µM | 54.1 µM |
| COc1ccccc1N(O)C1CC(=O)N(c2ccc(Br)cc2)C1=O (stereo not drawn) | 22.9 µM | 25.9 µM |
| N#Cc1ccc(OCC(O)CN2CCN(c3ncc(C(F)(F)F)cc3Cl)CC2)cc1 (stereo not drawn) | 15.4 µM | 24.3 µM |
| CO[C@@]12[C@H](COC(N)=O)C3=C(C(=O)C(C)=C(N)C3=O)N1C[C@@H]1N[C@@H]12 | 74.9 µM | > 100 µM |
| Cc1cc(OC(=O)c2cccs2)c2c3c(c(=O)oc2c1)CCCC3 | 4.18 µM | 8.9 µM |
| C=C1CCC[C@]2(C)C[C@H]3OC(=O)C(CNC(C)CCCC(C)C)[C@H]3CC12 (stereo partly drawn) | 23.4 µM | 26.2 µM |
| O=c1c2ccccc2nc(/C=C/c2ccccc2)n1-c1ccc(O)cc1 |  | > 50 µM |
| CCc1c(C2(O)CCCCC2)[nH]c2ccc(C(F)(F)F)cc12 | 40.2 µM | > 50 µM |
| Cc1ccc(N2CCN(C(=O)c3cn(CC4CCCCC4)nn3)C(C)C2)cc1 (stereo not drawn) | 39.5 µM | 50.3 µM |
| COCCCNC(=O)/C(C#N)=C/c1c(N2CCN(c3cccc(Cl)c3)CC2)nc2c(C)cccn2c1=O | 38.5 µM | > 100 µM |

| Compound | IC50 | IC90 |
| --- | --- | --- |
| Cc1cc(C(=O)N/N=C\C(Br)=C\c2ccccc2)c(C)o1 | 44.2 µM | 53.6 µM |
| Cc1ccc(Cl)cc1N1CCN(CC(=O)NC2CCCc3ccccc32)CC1 (stereo not drawn) | 35.6 µM | 51.1 µM |
| Nc1[nH]n2c(=O)cc(-c3ccccc3)nc2c1N=Nc1ccc2c(c1)OCO2 | 33.2 µM | 50.2 µM |
| CN(C)CCOc1ccc(-c2c(-c3ccsc3)sc3ccccc23)cc1 | 15.4 µM | 21 µM |
| Cc1nn2c(NCc3ccccn3)cc(C(C)C)nc2c1-c1ccccc1 | 2.85 µM | 3.23 µM |
| CCOC(=O)CSCC(=O)N1CCC(Cc2ccccc2)CC1 | 9.38 µM | 16.2 µM |
| Cc1cc(C2N=C(N)Nc3nc4ccccc4n32)c(C)n1-c1ccccc1Cl (stereo not drawn) | 17.3 µM | 21.4 µM |
| CCn1c(C)c(C)c2cc(C(=O)Nc3cccc(Cl)c3)ccc21 | 36.2 µM | > 100 µM |
| O=C1Nc2ccc(Br)cc2C12NNc1ccccc1O2 (stereo not drawn) | 44.1 µM | 62.9 µM |
| COc1ccc(OCCCC(=O)OC(C)C(=O)Nc2ccccc2[N+](=O)[O-])cc1 (stereo not drawn) | 44.9 µM | > 100 µM |
| CCCOc1cccc(-c2nn(-c3ccccc3)cc2/C=C(\C#N)C(=O)NCCCn2ccnc2)c1 | 63.2 µM | 78.3 µM |
| CN(C)CCOc1nc(-c2ccccc2)nc2c1oc1ccccc12 | 19.1 µM | 25.6 µM |
| COc1ccc(C2=NC(=O)/C(=C\c3cc(OC)c(OC)c(OC)c3)O2)cc1 | 11.1 µM | 16.2 µM |
| Brc1ccc(-c2nc3ncccn3c2Nc2ccc3c(c2)OCCO3)o1 | 90.7 µM | > 100 µM |
| Cc1c(Cl)cccc1NC(=O)CN1CCC(C(O)(c2ccccc2)c2ccccc2)CC1 | 45.1 µM | > 100 µM |
| COc1ccc(NCc2nc3ccccc3n2CCOc2ccccc2)cc1 | 69.5 µM | 88.6 µM |
| C/C(=N\Nc1ccc(S(=O)(=O)N2CCCCC2)cn1)c1cccc(Br)c1 | 39.2 µM | > 100 µM |
| O=C(c1cc2ccccc2o1)N1CCN(S(=O)(=O)c2ccc(Cl)s2)CC1 | 15.6 µM | 56 µM |
| COc1ccc(C2c3[nH]c4ccccc4c3CCN2C(=O)c2cc3ncccn3n2)c(F)c1 (stereo not drawn) |  | > 100 µM |
| Oc1ccc(N=Nc2n[nH]c(-c3ccc(Cl)cc3)n2)cc1 | 12.9 µM | 32.4 µM |
| O=C(OCc1ccc([N+](=O)[O-])cc1)c1cc2ccccc2oc1=O | 12 µM | > 100 µM |
| COc1cc(N=Nc2ccc3ccccc3c2)ccc1O | 39.7 µM | 59.1 µM |
| CCOC(=O)COc1ccc(C2CC(C)=NN2c2ccccc2)cc1 (stereo not drawn) | 8.21 µM | 12.9 µM |

| Compound | IC50 | IC90 |
| --- | --- | --- |
| COc1ccc(C(=O)C2CCCN(C3CSCCSC3)C2)c(C)c1 (stereo not drawn) | 33.5 µM | 44.9 µM |
| COC(=O)c1cc(-c2cccc(OC)c2)on1 | 10.5 µM | > 100 µM |
| C/C(=N/Nc1cc(-c2ccccc2)nc(-c2ccccc2)n1)c1ccc(O)cc1 | 9.73 µM | 12.7 µM |
| O=S(=O)(Nc1ccc2[nH]ncc2c1)c1ccccc1Cl | 11.3 µM | 17.1 µM |
| Nc1ccccc1C#CC(=O)c1ccccc1 | 4.11 µM | 21.7 µM |
| O=C(Nc1nnc(C2=COCCO2)o1)c1ccc(Cc2ccccc2)cc1 | 11.7 µM | 20.3 µM |
| Cc1ccc(C)c(NNC(N)=S)c1 | 16 µM | 29.2 µM |
| Cc1cc(C)c(CSc2ncc(-c3ccc([N+](=O)[O-])cc3)[nH]2)c(C)c1 | 36.9 µM | 53.4 µM |
| CN1/C(=C\C(=O)COC(=O)c2ccc([N+](=O)[O-])o2)C(C)(C)c2ccccc21 | 20.9 µM | 30.3 µM |
| CCN(CC)C(=O)[C@H]1CC(CC(=O)NCC23CC4CC(CC(C4)C2)C3)C(=O)N2CCc3c([nH]c4ccccc34)[C@]12C (stereo partly drawn) | 19.4 µM | 29.7 µM |
| O=C1C2C(C(=O)N1/N=C/c1ccc([N+](=O)[O-])o1)C1C=CC2C12CC2 (stereo not drawn) | 32.3 µM | 52.8 µM |
| O=C(NCCC1=CCCCC1)NC12CC3CC(CC(C3)C1)C2 | < 0.2 µM | 1.58 µM |
| CCN(CC)c1ccc2nc3ccccc3[n+](CC)c2c1 | 3.23 µM | 5.55 µM |
| N#C/C(=C\c1ccc(-c2ccc(Br)cc2)o1)C(=O)NCCc1c[nH]c2ccccc12 | 97.5 µM | > 100 µM |
| Cc1ccccc1CSc1nsc(N)n1 | 9.03 µM | 24.1 µM |
| Cc1cc(C)n(-c2nc(Nc3ccccc3C(F)(F)F)nc(-n3nc(C)cc3C)n2)n1 | 1.3 µM | 2.01 µM |
| O=c1c(O)c(-c2cccs2)oc2ccccc12 | 34.4 µM | > 100 µM |
| Cc1ccc2c(c1)nnn2C1CCN(CC(=O)N2CCN(c3ccc(F)cc3)CC2)CC1 | 36.8 µM | 54.7 µM |
| CC1Cc2ccccc2N1C(=S)NC(=O)c1ccc(Cl)cc1Cl (stereo not drawn) | 17 µM | > 100 µM |
| COc1ccccc1C(CNC(=O)C(C)(C)Oc1ccc(Cl)cc1)N1CCCC1 (stereo not drawn) | 27 µM | 42 µM |
